{
  "source": "patent US20130101628A1",
  "about": "(NORTHWESTERN UNIVERSITY, priority 2011, published 2013)",
  "key": {"[1]": {"system": "chicken chorioallantoic membrane (CAM)", "assay": "Shell-less chicken chorioallantoic membrane (CAM) angiogenesis assay", "assay_type": "in vivo", "conditions": "2 mM in PBS dried on coverslip, three days following treatment; saline 132%", "text": "An established assay reflecting in vivo angiogenesis, the chicken chorioallantoic membrane (CAM) assay, was used to evaluate the angiogenic potential of the VEGF-PA of the present examples. This assay utilizes the extra-embryonic allantois, a tissue derived from the mesoderm that develops into a densely vascularized membrane. A common deviation from the traditional assay is to remove the shell and conduct the assay on a shell-less embryo, termed the shell-less CAM assay, as we have performed here. Fertilized white leghorn chicken eggs (Phil's Fresh Eggs, Forreston, Ill.) were received and cultured in a temperature controlled, humidified egg incubator. On embryonic day 3, eggs were cracked within a sterile tissue culture hood into round 100 mm petri dishes. Fertilized embryos were then transferred to a water-jacketed CO2 incubator, set to 37.5° C., 1% CO2 and 100% relative humidity. On embryonic day 10, the material treatment was dissolved at 2 mM in PBS, evaporated onto the surface of a 5 mm round glass cover slip, and placed facing down on top of the CAM (n=16/group). Digital images were captured through the eyepiece of a Nikon stereomicroscope and vessel density was quantified by the number of intersections of vessel structures with the edge of the cover slip and expressed relative to the initial time-point. Images were captured daily, beginning at embryonic day 10 and culminating on embryonic day 13, the standard range over which the CAM assay is performed. Additionally, images were assessed qualitatively for morphological differences in the CAM vasculature including spoking, branching and leakage."}, "[2]": {"target": "T1, VEGF receptor 1 (VEGFR1 or Flt-1) (Homo sapiens, UniProt P17948)", "T1 construct": "host or cells: HUVEC", "T1 sequence (P17948 27-1338)": "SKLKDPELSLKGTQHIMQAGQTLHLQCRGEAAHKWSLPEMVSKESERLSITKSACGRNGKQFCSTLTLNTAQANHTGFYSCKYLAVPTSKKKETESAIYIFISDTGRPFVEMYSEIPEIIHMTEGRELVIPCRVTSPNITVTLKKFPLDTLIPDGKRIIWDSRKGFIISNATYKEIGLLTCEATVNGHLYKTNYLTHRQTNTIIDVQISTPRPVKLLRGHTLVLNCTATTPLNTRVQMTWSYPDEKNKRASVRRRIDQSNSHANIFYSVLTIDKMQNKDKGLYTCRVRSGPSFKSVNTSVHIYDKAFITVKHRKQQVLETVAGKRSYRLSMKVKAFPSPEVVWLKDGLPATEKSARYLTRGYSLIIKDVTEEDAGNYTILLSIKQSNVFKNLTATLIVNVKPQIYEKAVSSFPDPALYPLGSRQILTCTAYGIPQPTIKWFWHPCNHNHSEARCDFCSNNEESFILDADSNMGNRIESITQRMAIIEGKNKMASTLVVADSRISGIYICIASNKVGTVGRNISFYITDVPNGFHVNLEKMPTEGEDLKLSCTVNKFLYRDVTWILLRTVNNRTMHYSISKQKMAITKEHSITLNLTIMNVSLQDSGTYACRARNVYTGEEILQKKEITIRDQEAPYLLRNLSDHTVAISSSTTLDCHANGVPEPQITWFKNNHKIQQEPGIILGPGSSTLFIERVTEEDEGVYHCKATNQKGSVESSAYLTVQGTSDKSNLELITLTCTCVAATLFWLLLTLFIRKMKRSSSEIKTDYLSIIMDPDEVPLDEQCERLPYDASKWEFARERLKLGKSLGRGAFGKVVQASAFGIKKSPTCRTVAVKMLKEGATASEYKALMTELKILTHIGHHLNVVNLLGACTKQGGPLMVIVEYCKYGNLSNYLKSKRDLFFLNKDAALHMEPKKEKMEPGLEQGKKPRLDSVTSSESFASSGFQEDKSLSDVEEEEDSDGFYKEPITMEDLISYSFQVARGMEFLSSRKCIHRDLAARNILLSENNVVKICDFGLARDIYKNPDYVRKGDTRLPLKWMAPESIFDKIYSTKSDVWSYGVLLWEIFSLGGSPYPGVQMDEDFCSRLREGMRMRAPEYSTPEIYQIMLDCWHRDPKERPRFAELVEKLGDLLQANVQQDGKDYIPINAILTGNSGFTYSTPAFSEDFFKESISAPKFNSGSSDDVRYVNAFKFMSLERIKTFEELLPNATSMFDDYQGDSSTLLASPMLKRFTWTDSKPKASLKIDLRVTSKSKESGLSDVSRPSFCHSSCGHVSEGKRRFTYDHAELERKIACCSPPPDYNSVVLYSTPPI", "assay": "Sandwich ELISA of phosphorylated VEGFR1 in lysates of stimulated HUVEC", "assay_type": "cell-based", "conditions": "HUVEC time-course 0-60 minutes; falls below untreated baseline", "experimental": "Human umbilical vein endothelial cells (HUVECs) and complete endothelial cell growth media (EGM) were purchased (Genlantis, San Diego, Calif.), passaged two times following receipt, and cryo-preserved in media with 5% DMSO. Cells were thawed as needed and grown to confluence in a […] flasks (VWR Falcon) prior to plating for experiments.\nPhosphorylation of both VEGFRI and VEGFR2 was assayed using commercially available assay kit (R&D Systems, Minneapolis, Minn.) following the recommended protocol. First, confluent HUVECs plated in 24 well plates were starved for 5 hours in serum-free defined media (SFDM, Genlantis) specifically designed to maintain cells in a growth factor-free setting for growth factor signaling and metabolic assays. Following starvation, the various treatments were dissolved in SFDM to a concentration of 1 μM. […] Cells were exposed to treatment for 2 minutes. To evaluate the time-course of phosphorylation the same protocol was followed and cells were exposed to VEGF-PA for 0, 1, 3, 5, 10, 15, 20, 25, 30, 40, 50, and 60 minutes."}},
  "note": "* marks the point of attachment. Palmitoyl = CCCCCCCCCCCCCCCC(=O)*",
  "data": [
    {"substance": "CH3(CH2)14C(O)— VVAAKKKGKLTWQELYQLKYKGI-NH2 (Palmitoyl-VVAAKKKGKLTWQELYQLKYKGI-NH2; SMILES CCCCCCCCCCCCCCCC(=O)N[C@H](C(=O)N[C@H](C(=O)N[C@@H](C)C(=O)N[C@@H](C)C(=O)N[C@@H](CCCCN)C(=O)N[C@@H](CCCCN)C(=O)N[C@@H](CCCCN)C(=O)NCC(=O)N[C@@H](CCCCN)C(=O)N[C@@H](CC(C)C)C(=O)N[C@H](C(=O)N[C@@H](Cc1c[nH]c2ccccc12)C(=O)N[C@@H](CCC(N)=O)C(=O)N[C@@H](CCC(=O)O)C(=O)N[C@@H](CC(C)C)C(=O)N[C@@H](Cc1ccc(O)cc1)C(=O)N[C@@H](CCC(N)=O)C(=O)N[C@@H](CC(C)C)C(=O)N[C@@H](CCCCN)C(=O)N[C@@H](Cc1ccc(O)cc1)C(=O)N[C@@H](CCCCN)C(=O)NCC(=O)N[C@H](C(N)=O)[C@@H](C)CC)[C@@H](C)O)C(C)C)C(C)C) [VEGF-PA]", "values": [
      {"measurement": "blood vessels relative to the initial value", "setting": "[1]", "value": "229%±19%"},
      {"measurement": "time of stimulation at which phosphorylated VEGFR1 begins to decrease after initial rise", "setting": "[2]", "value": 10, "unit": "min"}
    ]}
  ]
}
